This note sets out measurements from US7223424B2, “Compositions and methods for prostate and kidney health and disorders, an herbal preparation” (Integrated Chinese Medicine Holdings, Ltd., priority 2001, dated 2007).

The structures appear in SMILES notation.

The subject of this test is person with enlarged prostate. Nature of the test: Case report: person with enlarged prostate and frequent urination. The conditions noted are these: prescribed for enlarged prostate. It counts as in vivo, human. The text has this:
Person diagnosed with having an enlarged prostate suffered from frequent-urination problems including increased daily frequency and reduced volume. They had the urge to urinate every two hours and the amount was only a few drops. Their symptoms were attributed to old age. […] They are able to urinate what they consider a normal amount of urine in a steady stream as opposed to the dribbling they experienced prior to taking the 9-herb composition. […] Because they are sleeping better, they have more energy throughout the day.

As to `CC(C)(C)NC(=O)[C@H]1CC[C@H]2[C@@H]3CC[C@H]4NC(=O)C=C[C@]4(C)[C@H]3CC[C@]12C` [PROSCAR], the urination problem result was “did not alleviate the urination problem”.
